# From US11065266B2, “Method of treating melanoma using an inhibitor of an atypical protein kinase C” (UNIVERSITY OF SOUTH FLORIDA, priority 2016, dated 2021)
# Legend:
# [1] = biological target: T1, PKM-ζ (Homo sapiens, UniProt Q05513); experiment: PKC activity assay (phosphorylation of myelin basic protein); type: biochemical
# T1 construct: proteolytic cleavage of N-regulatory domain and the C-terminal catalytic domain of PKC-ζ
# T1 sequence (Q05513 1-409 isoform Q05513-2): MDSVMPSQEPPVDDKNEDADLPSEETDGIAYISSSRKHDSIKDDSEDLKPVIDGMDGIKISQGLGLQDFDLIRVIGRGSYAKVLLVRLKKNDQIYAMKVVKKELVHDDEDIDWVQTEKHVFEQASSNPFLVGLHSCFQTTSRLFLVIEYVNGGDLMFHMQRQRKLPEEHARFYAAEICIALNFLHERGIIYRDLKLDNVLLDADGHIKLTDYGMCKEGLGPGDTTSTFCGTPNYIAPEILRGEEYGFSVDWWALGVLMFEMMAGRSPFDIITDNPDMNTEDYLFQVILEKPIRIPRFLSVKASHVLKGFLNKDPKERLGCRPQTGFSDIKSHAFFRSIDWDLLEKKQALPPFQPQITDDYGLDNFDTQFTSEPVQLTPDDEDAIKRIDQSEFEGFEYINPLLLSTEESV
# Description: (§1) PKC activity assay was conducted by monitoring the phosphorylation of myelin basic protein (MBP), a known substrate for PKCs. The detailed procedure was performed as described in Ling, D. S. F. et al. (2002) for PKC-ι and PKM-ζ [37].
# (§2) PKC activity assay was performed by suspending 0.5 μg of PKC-ζ and PKC-ι separately in 200 μL of PKC kinase buffer to test the ability of PKC-ζ and PKC-ι of phosphorylating and immunoprecipitating HSF-1 of the SK-MEL-2 cells and PCS-200-013 cells. The PKC kinase buffer composition was 20 mM Tris-HCL (pH of 7.5), 6 mM Magnesium acetate, phosphotidylserine ([…], 20 μL of 10 mg/mL solution), ATP (0.0045 mg/mL) and also the desired inhibitors, wherever appropriate (ICA-1, ACPD, DNDA and ζ-Stat). The inhibitor was used in two different concentrations as 1 μM and 0.5 μM. The reaction was terminated after incubation for 5 minutes at 30° C. by addition of sample loading buffer. Samples were then separated by PAGE and immunoblotted against anti-PKC antibodies (either PKC-ι or PKC-ζ) and against phosphospecific HSF-1 antibodies. Samples were also probed against anti-HSF-1 antibody to determine that the protein immunoprecipitaed was HSF-1. The signal was visualized using enhanced chemiluminescence.
# (§3) The activity of DNDA (FIG. 2) was determined for a series of concentrations (0-20 μM) using recombinant active PKC-ι or PKM-ζ in the presence of MBP (5 μg). The maximum inhibition of PKC-ζ was 40% and reached at 2 (P≤0.05). Inhibition remained the same upon increasing the concentration PKM-ζ is an active form of PKC-ζ found in human brain due to proteolytic cleavage of N-regulatory domain and the C-terminal catalytic domain of PKC-ζ [27-29].
# [2] = biological target: T2, recombinant active PKC-ι (Homo sapiens, UniProt P41743); experiment: as above; type: biochemical
# T2 sequence (P41743 1-596): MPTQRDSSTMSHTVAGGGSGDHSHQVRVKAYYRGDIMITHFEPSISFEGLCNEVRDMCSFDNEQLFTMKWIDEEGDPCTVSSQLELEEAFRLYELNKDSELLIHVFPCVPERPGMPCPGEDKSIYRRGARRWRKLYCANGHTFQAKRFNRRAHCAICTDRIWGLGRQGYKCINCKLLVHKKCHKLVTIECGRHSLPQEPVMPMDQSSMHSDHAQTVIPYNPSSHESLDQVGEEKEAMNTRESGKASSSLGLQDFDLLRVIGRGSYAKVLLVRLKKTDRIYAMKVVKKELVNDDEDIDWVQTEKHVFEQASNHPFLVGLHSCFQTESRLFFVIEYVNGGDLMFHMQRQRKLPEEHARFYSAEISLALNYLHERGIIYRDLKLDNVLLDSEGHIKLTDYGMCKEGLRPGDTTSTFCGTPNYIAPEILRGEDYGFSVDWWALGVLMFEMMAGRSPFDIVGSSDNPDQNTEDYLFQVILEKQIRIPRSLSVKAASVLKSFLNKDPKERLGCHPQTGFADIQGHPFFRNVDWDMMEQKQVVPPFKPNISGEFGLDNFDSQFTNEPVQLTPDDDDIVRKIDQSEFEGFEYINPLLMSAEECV
# Description: as §1, §2, §3
inhibition of PKM-ζ activity ([1]; kinase activity assay),effect on PKC-ι in kinase activity assay [2],"maximum inhibition of PKC-ζ ([1]; reached at 2 (unit not given), series 0-20 μM, MBP 5 μg)","inhibition at 0.5 µM ([2]; reached at 0.5 μM, series 0-20 μM, MBP 5 μg, read-out: maximum inhibition of PKC-ι)",SMILES
more than 50%,does not effect,,,"O=S(=O)(O)c1cc(O)c2c(S(=O)(=O)O)cc(S(=O)(=O)O)cc2c1 [ζ-Stat, 8-hydroxy-1,3,6-naphthalenetrisulfonic acid]"
,,40%,~15%,"Nc1c(S(=O)(=O)O)cc2cc(S(=O)(=O)O)ccc2c1N [DNDA, 3,4-diamino-2,7-naphthalenedisulfonic acid]"
